Source: PubChem BioAssay AID2060897 (Molecular Pharmacology Branch, DTP, NCI, 2025)
Each block holds one compound with its values, some of them ahead of it.

Tested on: 966289-007-R4-J1-PDC complex spheroid viability
Assay: Anticancer human tumor 966289-007-R4-J1-PDC patient-derived pancreatic adenocarcinoma cell line growth inhibition [RAS]
Conditions: for IC50: curve of first compound; for viability, T/C: stronger effect = lower value
From the text: RAS pathway inhibitors in Combinations in Complex Spheroids
A high-throughput screen of multi-cell type tumor spheroids was designed to identify active combinations of RAS pathway inhibitors and targeted small molecules. Complex spheroids include a stromal component modeled by human endothelial cells (HUVEC) and fibroblasts modeled by human mesenchymal stem cells (MSCs). The concentration ranges selected for each drug and investigational agent were based upon clinically achievable concentrations if the clinical Cmax of the agent was known.
Compounds. The drugs and investigational agents: abemaciclib (NSC768073), cobimetinib (NSC768068), divarasib (GDC6063, NSC841802), docetaxel (NSC628503), GDC-1971 (RLY-1971, NSC841576), gemcitabine (NSC613327), inavolisib (NSC800729), ipatasertib (NSC767898), KB-0742 (NSC834161), MRTX-1133 (NSC836407), osimertinib (NSC779217), RMC-4630 (NSC839698), RMC-6236 (NSC851965), RMC-6291 (NSC852671), Ro-3306 (NSC812927), sapanisertib (NSC764658), SN-38 (NSC673596), staurosporine (NSC755774), SY5609 (NSC837396), and tovorafenib (DAY101, NSC766906), were obtained from the National Cancer Institute (NCI) Developmental Therapeutics Program Chemical Repository. The FDA-approved anticancer drug set is available from the NCI Developmental Therapeutics Program. […] The stock solutions were prepared in dimethyl sulfoxide (DMSO, Sigma-Aldrich, St. Louis, MO, cat. D2650) at 800-fold the tested concentration and stored at -70 degrees C prior to their use. All drugs and investigational agents were tested over a range starting from a high concentration at or near the clinical Cmax and decreasing in half-log increments. If the clinical Cmax for an agent had not been determined, the highest concentration tested was 10 microM.
Cell Culture. All cells were maintained in an incubator at 37 degrees C and 5% CO2 with 95% humidity. The PDC lines were cultured according to standard operating procedures established by the NCI PDMR. All PDCs were thawed and cultured in Matrigel-coated flasks prepared with a working solution of 1X Ham's F-12 nutrient mix, without supplementation (Invitrogen, Waltham, MA, cat. 11765054), 100 U/mL penicillin-streptomycin (Invitrogen, cat. 15140122), and 2.5% Matrigel (Corning Inc., Corning, NY, cat. 354248) for the first three passages. The 362531-283-R-J2-PDC and 782815-120-R-J1-PDC lines were cultured in 6C/Colon 1B media, which includes advanced DMEM/F-12 (Thermo Fisher Scientific, cat. 12634028), 10 mM HEPES (Thermo Fisher Scientific, cat. 15630080), 1X GlutaMAX supplement (Thermo Fisher Scientific, cat. 35050061), 0.1 mg/mL primocin (InvivoGen, San Diego, CA, cat. ant-pm-2), 10% defined fetal bovine serum, heat inactivated (HyClone Laboratories Inc., Logan, UT, cat. SH30070.03HI), 50% L-WRN conditioned media (ATCC, cat. CRL-3276), 1.25 mM N-Acetyl-L-cysteine (Sigma-Aldrich, cat. A9165), 10 mM nicotinamide (Sigma-Aldrich, cat. N0636), 1X B-27 supplement (Thermo Fisher Scientific, cat. 17504044), 1X N-2 supplement (Thermo Fisher Scientific, cat. 17502048), 50 ng/mL human EGF (Thermo Fisher Scientific, cat. PHG0311), and 10 microM Y-27632 dihydrochloride (Tocris Bioscience, cat. 1254). The K12877-001-R-J1-PDC line was cultured in 6I media, which includes all 6C/Colon 1B media plus 10 ng/mL human FGF-10 (PeproTech, cat. 100-26), 1 ng/mL human FGF-2 (PeproTech, cat. 100-18B), 1 µM prostaglandin E2 (Tocris Bioscience, cat. 2296), […] hydrocortisone (Sigma-Aldrich, cat. H4001), and […] bovine insulin (Sigma-Aldrich, cat. I6634). The K86415-001-R-J1-PDC line was cultured in 6D media, which includes all 6C/Colon 1B media components minus the L-WRN conditioned media. The 485176-168-R4-J1-PDC was cultured in PANC media, which includes all 6C/Colon 1B media plus 100 ng/mL human FGF-10 (PeproTech, cat. 100-26), 500 nM SB-431542 (Selleckchem, cat. S1067), and 10 nM gastrin (Tocris Bioscience, cat. 3006). […]
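Also: spheroids exposed to agents for one week before readout.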
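For viability, T/C in this document: percent viability relative to DMSO vehicle control wells as 100%.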

- IC50 (second compound 0.000949 µM): 6.91 nM
- IC50 (second compound 0.003 µM): 6.78 nM
- IC50 (second compound 0.00949 µM): 6.97 nM
- IC50 (second compound 0.03 µM): 7.53 nM
- IC50 (second compound 0.0949 µM): 7.39 nM
- IC50 (second compound 0.3 µM): 6.14 nM
SMILES: CC1(C)CCC(Nc2ncc(C(F)(F)F)c(-c3c[nH]c4c(P(C)(C)=O)c(C#N)ccc34)n2)CN1 (centres undefined) + CCn1c(-c2cc(N3CCN(C)CC3)cnc2C(C)OC)c2c3cc(ccc31)-c1csc(n1)CC(NC(=O)C1CC1C)C(=O)N1CCCC(N1)C(=O)OCC(C)(C)C2
- viability, T/C (second compound 0.000949 µM, first compound 0.000949 µM): 124%
- viability, T/C (second compound 0.000949 µM, first compound 0.003 µM): 104%
- viability, T/C (second compound 0.000949 µM, first compound 0.00949 µM): 29%
- viability, T/C (second compound 0.000949 µM, first compound 0.03 µM): 14.5%
- viability, T/C (second compound 0.000949 µM, first compound 0.0949 µM): 8.71%
- viability, T/C (second compound 0.000949 µM, first compound 0.3 µM): 9.97%
- viability, T/C (second compound 0.003 µM, first compound 0.000949 µM): 134%
- viability, T/C (second compound 0.003 µM, first compound 0.003 µM): 99.9%
- viability, T/C (second compound 0.003 µM, first compound 0.00949 µM): 29.9%
- viability, T/C (second compound 0.003 µM, first compound 0.03 µM): 8.54%
- viability, T/C (second compound 0.003 µM, first compound 0.0949 µM): 10.7%
- viability, T/C (second compound 0.003 µM, first compound 0.3 µM): 9.36%
- viability, T/C (second compound 0.00949 µM, first compound 0.000949 µM): 130%
- viability, T/C (second compound 0.00949 µM, first compound 0.003 µM): 116%
- viability, T/C (second compound 0.00949 µM, first compound 0.00949 µM): 26%
- viability, T/C (second compound 0.00949 µM, first compound 0.03 µM): 14.3%
- viability, T/C (second compound 0.00949 µM, first compound 0.0949 µM): 12.3%
- viability, T/C (second compound 0.00949 µM, first compound 0.3 µM): 11.2%
- viability, T/C (second compound 0.03 µM, first compound 0.000949 µM): 113%
- viability, T/C (second compound 0.03 µM, first compound 0.003 µM): 115%
- viability, T/C (second compound 0.03 µM, first compound 0.00949 µM): 34%
- viability, T/C (second compound 0.03 µM, first compound 0.03 µM): 16.7%
- viability, T/C (second compound 0.03 µM, first compound 0.0949 µM): 12.3%
- viability, T/C (second compound 0.03 µM, first compound 0.3 µM): 10.1%
- viability, T/C (second compound 0.0949 µM, first compound 0.000949 µM): 122%
- viability, T/C (second compound 0.0949 µM, first compound 0.003 µM): 139%
- viability, T/C (second compound 0.0949 µM, first compound 0.00949 µM): 27.6%
- viability, T/C (second compound 0.0949 µM, first compound 0.03 µM): 12.7%
- viability, T/C (second compound 0.0949 µM, first compound 0.0949 µM): 13.7%
- viability, T/C (second compound 0.0949 µM, first compound 0.3 µM): 9.77%
- viability, T/C (second compound 0.3 µM, first compound 0.000949 µM): 128%
- viability, T/C (second compound 0.3 µM, first compound 0.003 µM): 86.9%
- viability, T/C (second compound 0.3 µM, first compound 0.00949 µM): 27.7%
- viability, T/C (second compound 0.3 µM, first compound 0.03 µM): 12.8%
- viability, T/C (second compound 0.3 µM, first compound 0.0949 µM): 12.7%
- viability, T/C (second compound 0.3 µM, first compound 0.3 µM): 11.7%

- IC50 (second compound 0.00316 µM): > 10000 nM
- IC50 (second compound 0.01 µM): > 10000 nM
- IC50 (second compound 0.0316 µM): > 10000 nM
- IC50 (second compound 0.1 µM): > 10000 nM
- IC50 (second compound 0.316 µM): > 10000 nM
- IC50 (second compound 1 µM): > 10000 nM
SMILES: NC1c2ccccc2OC12CCN(c1cnc3c(N4CCCc5ncccc54)n[nH]c3n1)CC2 (centres undefined) + C=CC(=O)N1CCN(c2nc(OCC3CCCN3C)nc3c(F)c(-c4nc(N)cc(C)c4C(F)(F)F)c(Cl)cc23)C(C)C1
- viability, T/C (second compound 0.00316 µM, first compound 0.0316 µM): 117%
- viability, T/C (second compound 0.00316 µM, first compound 0.1 µM): 90.1%
- viability, T/C (second compound 0.00316 µM, first compound 0.316 µM): 126%
- viability, T/C (second compound 0.00316 µM, first compound 1 µM): 102%
- viability, T/C (second compound 0.00316 µM, first compound 3.16 µM): 113%
- viability, T/C (second compound 0.00316 µM, first compound 10 µM): 103%
- viability, T/C (second compound 0.01 µM, first compound 0.0316 µM): 113%
- viability, T/C (second compound 0.01 µM, first compound 0.1 µM): 104%
- viability, T/C (second compound 0.01 µM, first compound 0.316 µM): 104%
- viability, T/C (second compound 0.01 µM, first compound 1 µM): 122%
- viability, T/C (second compound 0.01 µM, first compound 3.16 µM): 107%
- viability, T/C (second compound 0.01 µM, first compound 10 µM): 118%
- viability, T/C (second compound 0.0316 µM, first compound 0.0316 µM): 113%
- viability, T/C (second compound 0.0316 µM, first compound 0.1 µM): 103%
- viability, T/C (second compound 0.0316 µM, first compound 0.316 µM): 133%
- viability, T/C (second compound 0.0316 µM, first compound 1 µM): 113%
- viability, T/C (second compound 0.0316 µM, first compound 3.16 µM): 126%
- viability, T/C (second compound 0.0316 µM, first compound 10 µM): 119%
- viability, T/C (second compound 0.1 µM, first compound 0.0316 µM): 101%
- viability, T/C (second compound 0.1 µM, first compound 0.1 µM): 103%
- viability, T/C (second compound 0.1 µM, first compound 0.316 µM): 94.2%
- viability, T/C (second compound 0.1 µM, first compound 1 µM): 105%
- viability, T/C (second compound 0.1 µM, first compound 3.16 µM): 119%
- viability, T/C (second compound 0.1 µM, first compound 10 µM): 107%
- viability, T/C (second compound 0.316 µM, first compound 0.0316 µM): 109%
- viability, T/C (second compound 0.316 µM, first compound 0.1 µM): 91.4%
- viability, T/C (second compound 0.316 µM, first compound 0.316 µM): 107%
- viability, T/C (second compound 0.316 µM, first compound 1 µM): 120%
- viability, T/C (second compound 0.316 µM, first compound 3.16 µM): 102%
- viability, T/C (second compound 0.316 µM, first compound 10 µM): 106%
- viability, T/C (second compound 1 µM, first compound 0.0316 µM): 105%
- viability, T/C (second compound 1 µM, first compound 0.1 µM): 114%
- viability, T/C (second compound 1 µM, first compound 0.316 µM): 123%
- viability, T/C (second compound 1 µM, first compound 1 µM): 113%
- viability, T/C (second compound 1 µM, first compound 3.16 µM): 116%
- viability, T/C (second compound 1 µM, first compound 10 µM): 124%
